{"source": "patent US20140155445A1", "about": "“Compounds and Methods for Treating Cancer and Diseases of the Central Nervous System” (Osta Biotechnologies Inc., priority 2007, published 2014)", "test_system": "human metastatic prostate cancer PC-3M cells", "assay": "Orthotopic PC-3M prostate cancer model in SCID mice", "format": "in vivo", "source_text": "PC-3 & PC-3M (human prostate carcinoma). The PC-3 human prostate cancer cell line was originally obtained from the American Type Culture Collection (Rockville, Md.). The PC-3M cell line was kindly provided by Dr. Issac (MD Anderson Cancer Center). This cell variant was derived from a liver metastasis produced by the parental PC-3 cells growing in the spleen of a nude mouse [Pettaway C A, Pathak S, Greene G, et al. Selection of highly metastatic variants of different human prostate carcinomas utilizing orthotopic implantation in nude mice.\nMale SCID mice were housed in laminar flow under specific pathogen-free conditions and used at 8-9 weeks of age. Animals were maintained in the LDI facilities approved by the Laboratory Animal Care in accordance with current Canadian regulations and standards for the use of animals for research.\nMice were anesthesized with isofluorane given by inhalation and placed in a supine position. […] A low midline incision was made and the prostate was exposed. Fifty microliters of HBSS containing 1×10^6 cells was injected into a lateral lobe of the prostate. The wound was closed with surgical metal clips in two layers, the muscle layer first and then the skin layer using stainless steel clips (autoclips: 9 mm; Clay Adams Inc., Parsippany, N.J.). […] Control groups received the vehicle alone. Taxol™ was given either ip or iv as indicated.\nPrimary tumors in the prostate were excised, measured, and weighed. When applicable, immunohistochemistry and H&E staining were conducted on one part of the tumor, fixed in formalin and embedded in paraffin or OCT compound (Miles Inc., Elkhart, Ind.); the later was rapidly frozen in liquid nitrogen, and stored at −70° C. Macroscopically enlarged regional lymph nodes were harvested and the presence of metastatic disease was confirmed by histology.\nThe in vivo data was analyzed using the Mann-Whitney U test.", "key": {"[1]": {"details": "QC-56 30 mg/kg intraperitoneally daily for 12 days, Taxol 10 mg/kg i.p. 3 cycles"}, "[2]": {"details": "QC-56 30 mg/kg intravenously daily for 12 days, Taxol 10 mg/kg i.p. 3 cycles"}}, "data": [{"smiles": "Brc1ccc(CCC2(Cn3ccnc3)OCCO2)cc1.Cl", "note": "[QC-56, 1-((2-(2-(4-Bromophenyl)ethyl)-1,3-dioxolan-2-yl)methyl)-1H-imidazole hydrochloride]", "values": [{"measurement": "inhibition of tumor growth", "setting": "[1]", "result": 34, "unit": "%"}, {"measurement": "reduction in microscopic lymph node metastases", "setting": "[1]", "result": 59, "unit": "%"}, {"measurement": "inhibition of tumor growth", "setting": "[2]", "result": 58, "unit": "%"}, {"measurement": "reduction in microscopic lymph node metastases", "setting": "[2]", "result": 76, "unit": "%"}, {"measurement": "reduction in microscopic lymph node metastases", "setting": "QC-56 40 mg/kg daily for 24 days, Taxol 10 mg/kg, 4 cycles", "result": 48, "unit": "%"}, {"measurement": "inhibition of tumor growth compared to untreated mice", "setting": "QC-56 40 mg/kg daily for 24 days, Taxol 10 mg/kg, 4 cycles, 3 administrations per cycle", "result": 35, "unit": "%"}]}]}
